Test results: patent US7186831B2, “5-halo-2-alkyl[1,2,4]triazolo[1,5-a]pyrimidin-7-amines” (priority 2001, dated 2007)

Assay: log P by HPLC
Assay type: physicochemical
Conditions: EEC directive 79/831 Annex V. A8 by HPLC (gradient method, acetonitrile/0.1% aqueous phosphoric acid)

Structure (SMILES)	logP
Cc1nc2nc(Cl)c(-c3c(F)cccc3F)c(N3CCC(N(C)C)C3)n2n1 (centres unmarked) [compound 306]	1.18
Cc1nc2nc(Cl)c(-c3c(F)cccc3Cl)c(NCC3CC3)n2n1 [compound 263]	2.95
CC(=O)NC1CCN(c2c(-c3c(F)cccc3F)c(Cl)nc3nc(C)nn23)C1 (centres unmarked) [compound 305]	1.64
CCCN(CC1CCCO1)c1c(-c2c(F)cccc2Cl)c(Cl)nc2nc(C)nn12 (centres unmarked) [compound 277]	3.72
Cc1nc2nc(Cl)c(-c3c(F)cccc3F)c(N3CCCC3C)n2n1 (centres unmarked) [compound 304]	3.02
CCN(CCOC)c1c(-c2c(F)cccc2F)c(Cl)nc2nc(C)nn12 [compound 342]	2.74
Cc1nc2nc(Cl)c(-c3ccccc3F)c(NOCc3cccc(C(F)(F)F)c3)n2n1 [compound 371]	3.38
C=C(C)CN(CC)c1c(-c2c(F)cccc2F)c(Cl)nc2nc(C)nn12 [compound 339]	3.65
CC(Nc1c(-c2ccc(F)cc2F)c(Cl)nc2nc(C(F)(F)F)nn12)C(F)(F)F (centres unmarked) [compound 358]	3.89

Now from value to compound:

logP	Structure (SMILES)
3.76	CC(C)CNc1c(-c2ccccc2Cl)c(Cl)nc2nc(C3CC3)nn12 [compound 492]
2.63	Cc1nc2nc(Cl)c(-c3ccccc3F)c(NC(C)C)n2n1 [compound 386]
3.52	Cc1nc2nc(Cl)c(-c3c(F)cccc3F)c(NC3CCCCC3C(F)(F)F)n2n1 (centres unmarked) [compound 425]
2.49	CC(=O)C1CCN(c2c(-c3c(F)cccc3F)c(Cl)nc3nc(C)nn23)CC1 [compound 442]
3.56	CCN(Cc1ccco1)c1c(-c2ccccc2Cl)c(Cl)nc2nc(C)nn12 [compound 404]
2.5	CON(C)c1c(-c2ccccc2F)c(Cl)nc2nc(C)nn12 [compound 377]
3.91	Cc1nc2nc(Cl)c(-c3ccccc3Cl)c(N3CCCCC3C)n2n1 (centres unmarked) [compound 401]
3.39	Clc1ccccc1-c1c(Cl)nc2nc(C3CC3)nn2c1N1CCCCN1 [compound 488]
3.73	Cc1nc2nc(Cl)c(-c3ccccc3F)c(NC3CC(C(F)(F)F)CC(C(F)(F)F)C3)n2n1 (centres unmarked) [compound 399]

Same assay, conditions: HPLC, gradient method, acetonitrile/0.1% aqueous phosphoric acid; EEC directive 79/831 Annex V. A8

Structure (SMILES)	logP
Cc1nc2nc(Cl)c(-c3c(F)cc(F)cc3F)c(NCC#N)n2n1 [compound 18]	2.02
C=C(C)CNc1c(-c2c(F)cccc2Cl)c(Cl)nc2nc(C)nn12 [compound 250]	2.8
Cc1nc2nc(Cl)c(-c3c(F)cc(F)cc3F)c(NCC(C)(C)C)n2n1 [compound 146]	3.5
C=C(C)CNc1c(-c2c(F)cccc2F)c(Cl)nc2nc(C)nn12 [compound 183]	2.56
CNc1c(-c2c(F)cc(F)cc2F)c(Cl)nc2nc(C(F)(F)F)nn12 [compound 108]	3.17
CCc1nc2nc(Cl)c(-c3c(F)cc(F)cc3F)c(N(N)CC(C)C)n2n1 [compound 127]	3.47
COC(=O)CNc1c(-c2c(F)cc(F)cc2F)c(Cl)nc2nc(C)nn12 [compound 125]	2.13
Cc1nc2nc(Cl)c(-c3c(F)cc(F)cc3F)c(NC3CCCC3)n2n1 [compound 62]	3.23
C=C(C)CN(CC)c1c(-c2c(F)cc(F)cc2F)c(Cl)nc2nc(C(F)(F)F)nn12 [compound 95]	4.69
Cc1nc2nc(Cl)c(-c3c(F)cccc3Cl)c(NCC(C)(C)C)n2n1 [compound 249]	3.59
CCc1nc2nc(Cl)c(-c3c(F)cc(F)cc3F)c(N(CC)CCOC)n2n1 [compound 30]	3.37
Cc1nc2nc(Cl)c(-c3ccccc3Cl)c(NC3CC3)n2n1 [compound 215]	2.54
COC(OC)C(C)Nc1c(-c2c(F)cc(F)cc2F)c(Cl)nc2nc(C)nn12 (centres unmarked) [compound 123]	2.74
Cc1nc2nc(Cl)c(-c3c(F)cc(F)cc3F)c(NCC(C)C)n2n1 [compound 145]	3.14
CCC(C)Nc1c(-c2c(F)cc(F)cc2F)c(Cl)nc2nc(C)nn12 (centres unmarked) [compound 147]	3.1
Cc1nc2nc(Cl)c(-c3c(F)cc(F)cc3F)c(N3CCCC(O)C3)n2n1 (centres unmarked) [compound 99]	2.15

The remaining lines, values ahead:

logP	Structure (SMILES)
3.29	CN(C)Nc1c(-c2ccc(F)cc2Cl)c(Cl)nc2nc(C3CC3)nn12 [compound 619]
2.71	CC(=O)NC1CCN(c2c(-c3ccc(F)cc3F)c(Cl)nc3nc(C(F)(F)F)nn23)CC1 [compound 806]
2.56	CC(=O)NC1CCN(c2c(-c3ccc(F)cc3F)c(Cl)nc3nc(C(F)(F)F)nn23)C1 (centres unmarked) [compound 793]
2.17	CC(=O)NC1CCN(c2c(-c3ccc(F)cc3F)c(Cl)nc3nc(C4CC4)nn23)C1 (centres unmarked) [compound 728]
3.61	C=CCN(C)c1c(-c2ccc(F)cc2F)c(Cl)nc2nc(C3CC3)nn12 [compound 664]
3.96	CCCN(Cc1cccs1)c1c(-c2c(F)cccc2F)c(Cl)nc2nc(C)nn12 [compound 570]
3.98	CC(Nc1c(-c2c(F)cccc2F)c(Cl)nc2nc(C3CC3)nn12)C(F)(F)F (centres unmarked) [compound 764]
3.72	Fc1ccc(-c2c(Cl)nc3nc(C4CC4)nn3c2N2CCCC2)c(Cl)c1 [compound 634]
3.92	COC(=O)C1CCCCN1c1c(-c2ccc(F)cc2F)c(Cl)nc2nc(C3CC3)nn12 (centres unmarked) [compound 733]
3.72	Fc1ccc(-c2c(Cl)nc3nc(C4CC4)nn3c2N2CC=CCC2)c(F)c1 [compound 608]
4.04	Fc1ccc(-c2c(Cl)nc3nc(C(F)(F)F)nn3c2N2CCSCC2)c(F)c1 [compound 810]
4.03	CC(C)C(C)Nc1c(-c2c(F)cc(F)cc2F)c(Cl)nc2nc(C3CC3)nn12 (centres unmarked) [compound 581]
1.28	Cc1nc2nc(Cl)c(-c3c(F)cccc3F)c(N(CCN)C(C)C)n2n1 [compound 571]
4.72	CC(C)C(C)Nc1c(-c2ccc(Cl)cc2Cl)c(Cl)nc2nc(C3CC3)nn12 (single isomer, unassigned) [compound 756]
2.42	N#CCNc1c(-c2ccc(F)cc2F)c(Cl)nc2nc(C3CC3)nn12 [compound 713]
4.54	CC(C)CN(C)c1c(-c2ccc(F)cc2F)c(Cl)nc2nc(C(F)(F)F)nn12 [compound 544]
1.65	CN1CCN(c2c(-c3ccc(F)cc3F)c(Cl)nc3nc(C(F)(F)F)nn23)CC1 [compound 807]
2.95	COC(=O)CN(C)c1c(-c2ccc(F)cc2F)c(Cl)nc2nc(C3CC3)nn12 [compound 720]
4.03	CC(C)CNc1c(-c2ccc(F)cc2F)c(Cl)nc2nc(C(F)(F)F)nn12 [compound 525]
3.68	CC1CCCN1c1c(-c2c(F)cccc2F)c(Cl)nc2nc(C3CC3)nn12 (centres unmarked) [compound 678]
3.77	CC(Nc1c(-c2ccc(F)cc2Cl)c(Cl)nc2nc(C3CC3)nn12)C(F)(F)F (racemic) [compound 748]
4.25	CC(C)C(C)Nc1c(-c2ccc(F)cc2Cl)c(Cl)nc2nc(C3CC3)nn12 (racemic) [compound 586]
4.07	CCCCNc1c(-c2ccc(F)cc2F)c(Cl)nc2nc(C(F)(F)F)nn12 [compound 526]
3.98	C=C(C)CN(C)c1c(-c2c(F)cccc2F)c(Cl)nc2nc(C3CC3)nn12 [compound 677]
3.56	Cc1nc2nc(Cl)c(-c3c(F)cccc3F)c(NC(C)C(C)(C)C)n2n1 (centres unmarked) [compound 685]
